Experimental data reported in ChEMBL document CHEMBL5154710, “Discovery of small molecules interacting at lactate dehydrogenases tetrameric interface using a biophysical screening cascade” (Eur J Med Chem, 2022).

What was measured:
[1] = Destabilization of Red-dye-NHS fluorescent-labeled human LDH-5 expressed in Escherichia coli assessed as dissociation constant by MST assay
[2] = Destabilization of Red-dye-NHS fluorescent-labeled human LDH-1 expressed in Escherichia coli assessed as dissociation constant by MST assay
Homo sapiens [3] = organism: Homo sapiens; assay: Destabilization of human LDH-1expressed in Escherichia coli assessed as change in melting temperature at 1 mM heated for 3 mins by NanoDSF assay
Homo sapiens [4] = organism: Homo sapiens; assay: Stabilization of human LDH-Htr expressed in Escherichia coli assessed as change in melting temperature at 1 mM heated for 3 mins by NanoDSF assay
Homo sapiens [5] = organism: Homo sapiens; assay: Destabilization of human LDH-5 expressed in Escherichia coli assessed as change in melting temperature at 1 mM heated for 3 mins by NanoDSF assay
[6] = Stabilization of Red-dye-NHS fluorescent-labeled human LDH-Htr expressed in Escherichia coli assessed as dissociation constant by MST assay
Homo sapiens [7] = organism: Homo sapiens; assay: Displacement of macro-cycle 7 from human LDH-Htr expressed in Escherichia coli assessed as decay in saturation transfer at 100 uM by saturation transfer difference-1H NMR analysis
[8] = Inhibition of LDH-5 (unknown origin) assessed as denaturation of LDH-5 using NADH and pyruvate as substrate by spectrophotometric analysis; parameters: species or system Homo sapiens

Question: Which Kd [1] does the source give for `Nc1nc2ccccc2n1Cc1ccc(F)cc1` here?
Answer: The Kd was 324 µM.

Question: And the Kd [2]?
Answer: Its Kd is 48 µM.

Question: And the ΔTm (Homo sapiens [3])?
Answer: Its ΔTm is 0.4 °C.

Question: And the ΔTm (Homo sapiens [4])?
Answer: The ΔTm was 0.8 °C.

Question: What about the ΔTm (Homo sapiens [5]) of the same compound?
Answer: Its ΔTm is -2.6 °C.

Question: And the Kd [6]?
Answer: Its Kd is 183 µM.

Question: Which Kd [2] does the source give for `O=C(O)c1ccccc1Nc1cccc(C(F)(F)F)c1` [FLUFENAMIC ACID] here?
Answer: The Kd was 1700 µM.

Question: What about the ΔTm (Homo sapiens [3]) of the same compound?
Answer: The ΔTm was 0.4 °C.

Question: And the ΔTm (Homo sapiens [4])?
Answer: Its ΔTm is 1.9 °C.

Question: What about the ΔTm (Homo sapiens [5]) of the same compound?
Answer: Its ΔTm is -1.7 °C.

Question: What about the Kd [6] of the same compound?
Answer: Its Kd is 900 µM.

Question: Which results are given for `CNCCCC12CCC(c3ccccc31)c1ccccc12`?
Answer: ΔTm (Homo sapiens [3]): -1.4 °C; ΔTm (Homo sapiens [4]): 4.6 °C; ΔTm (Homo sapiens [5]): -2.7 °C

Question: What does the source list for `O=C(O)c1cc(-c2ccc(F)cc2F)ccc1O` [DIFLUNISAL]?
Answer: Kd [1]: 343 µM; Kd [2]: 116 µM; ΔTm (Homo sapiens [3]): 0.1 °C; ΔTm (Homo sapiens [4]): 3.1 °C; ΔTm (Homo sapiens [5]): -2.1 °C; Kd [6]: 1000 µM

Question: Which Activity (Homo sapiens [7]) does the source give for `Cc1ccc(/C(=C\CN2CCCC2)c2ccccn2)cc1` [TRIPROLIDINE] here?
Answer: Its Activity is 40%.

Question: What about the IC50 [8] of the same compound?
Answer: The IC50 was 7600 µM.
